Data taken from the NIST ThermoML archive (doi:10.1021/je900370q).
± gives the expanded uncertainty stated by the source.

Details: Crystal; DTA
In the case of `O=C(/C=C/c1ccc(-c2cccc([N+](=O)[O-])c2)o1)c1ccc([N+](=O)[O-])cc1`, the Normal melting temperature is reported as 218.00 ± 1 °C.
`O=C(/C=C/c1ccc(-c2cccc([N+](=O)[O-])c2)o1)c1ccc(Br)cc1` showed a Normal melting temperature of 160.00 ± 1 °C.
With `O=C(/C=C/c1ccc(-c2cccc([N+](=O)[O-])c2)o1)c1ccco1` the Normal melting temperature was 178.00 ± 1 °C.
In the case of `O=C(/C=C/c1ccc(-c2cccc([N+](=O)[O-])c2)o1)c1ccc(O)cc1`, the Normal melting temperature is reported as 152.00 ± 1 °C.
In the case of `O=C(/C=C/c1ccc(-c2cccc([N+](=O)[O-])c2)o1)c1ccccc1` [(E)-3-(5-(3-nitrophenyl)furan-2-yl)-1-phenylprop-2-en-1-one], the Normal melting temperature is reported as 142.00 ± 1 °C.
Compound `O=C(/C=C/c1ccc(-c2cccc([N+](=O)[O-])c2)o1)c1cccc([N+](=O)[O-])c1` has a Normal melting temperature of 180.00 ± 1 °C.
For `COc1ccc(C(=O)/C=C/c2ccc(-c3cccc([N+](=O)[O-])c3)o2)cc1`, the Normal melting temperature was 141.00 ± 1 °C.
Work on `Nc1ccc(C(=O)/C=C/c2ccc(-c3cccc([N+](=O)[O-])c3)o2)cc1` yielded a Normal melting temperature of 171.00 ± 1 °C.
For `O=C(/C=C/c1ccc(-c2cccc([N+](=O)[O-])c2)o1)c1ccc(Cl)cc1`, the Normal melting temperature was 170.00 ± 1 °C.
`O=C(/C=C/c1ccc(-c2cccc([N+](=O)[O-])c2)o1)c1cc2ccccc2oc1=O` showed a Normal melting temperature of 172.00 ± 1 °C.
